Data on 15 compounds can be found in patent US10981911B2, “Imidazopyrrolopyridine as inhibitors of the JAK family of kinases” (Janssen Pharmaceutica NV, priority 2016, dated 2021).

Holding throughout (type): biochemical
One assay has as its target JAK1-JH1JH2 (Homo sapiens (Human), UniProt P23458). Description: Enzymatic inhibition assay (RapidFire HTMS), JAK1. The following applies: 12.5 μM ATP, 200 μM substrate; read-out: JAK1-JH2JH1 IC50. The source says:
(§1) LC/MS grade Water and Acetonitrile (ACN), were purchased from HoneyWell, Burdick & Jackson (Muskegon, Mich., USA). Dimethylsulfoxide 99.8% (DMSO) and Trifluoroacetic Acid 99.5% (TFA) were purchased from EMD Chemical (Gibbstown, N.J., USA). Adenosine triphosphate (ATP), 4-Morpholinepropanesulfonic acid (MOPS), Magnesium chloride (MgCl2), ethylenediaminetetraacetic acid (EDTA), dithiothreitol (DTT), formic acid >95% (FA) and Tween-20 were purchased from Sigma (St Louis, Mo., USA). 384-well polypropylene plates, Cat #781280 were purchased from Greiner (Monroe, N.C.), RapidFire™ cartridge A C4 Column (Agilent Technologies, Santa Clara, Calif.).
(§2) The HTMS experiments were performed in positive ionization mode on a RapidFire 300 instrument (Agilent Technologies, Santa Clara, Calif.), coupled with an ABSiex QTrap 4000 system with an Electrospray Ionization source (RF-MS) (Concord, ON, Canada). […] The entire system was operated using the RapidFire software interfaced with Analyst software for the mass spectrometer.
(§3) 11-point dosing series were made for each compound by serially diluting 1:3 or 1:4 in DMSO, with point 12 being a DMSO control. From the serial dilution plates, sample was transferred to a 384 wells assay plate (#781280, Greiner, Monroe, N.C.) using Labcyte Echo (Sunnyvale, Calif.), or Biosero ATS (San Diego, Calif.). The compounds were tested in duplicate. Column 12 was used for positive controls, and column 24 contained negative controls with no enzyme added. A compound from our internal collection, with inhibitory activity for JAK isoforms, was used as a reference compound. The final concentration of DMSO was ≤0.25% in a 20 μL reaction. […] The Tyk2 enzyme was pre-incubated with 2 mM ATP for 30 min prior to the reaction initiation. Immediately after the addition of the enzyme to the reaction mixture, the plate was centrifuged at 1000 rpm for 1 minute and incubated at 25° C. for 45 minutes for JAK 3 and 90 minutes for JAK1, JAK2 and Tyk2. The reaction was quenched by the addition of 20 μL of 0.5% TFA containing 0.15 μM of internal standard peptide using Multidrop Combi reagent dispenser (Thermo Scientific, Waltham, Mass.). […] After the quench, the assay plate was centrifuged at 3000 rpm for 3 minutes and sealed with pierceable aluminum foil (Cat #06644-001, Agilent) using a PlateLoc (Agilent Technologies, Santa Clara, Calif.). The plates then were transferred on to the RapidFire for the MS analysis. Compound inhibition was assessed by a decrease of the phosphorylated product levels in sample wells compared to the non-inhibited enzyme reaction.
(§4) The sample analysis on the RapidFire was performed using a mobile phase A consisting of Water/TFA/FA (100:0.01:0.1, v/v/v), a mobile phase B consisting of ACN/Water/TFA/FA (80:20:0.01:0.1, v/v/v). […] The samples were aspirated directly from the 384 assay plate and delivered onto RF-MS microscale solid-phase C4 extraction cartridge (Type A). The undesired component such as salt, cofactor, detergent and large protein were washed out and the retained analytes (substrate, product and IS) were coeluted directly onto the ABSiex Qtrap 4000 system.

The target in a further assay is JAK2-JH1JH2 (Homo sapiens (Human), UniProt O60674). Description: Enzymatic inhibition assay (RapidFire HTMS), JAK2. The following applies: 30 μM ATP, 40 μM substrate.
Text: as §1, §2, §3, §4

For a further assay, the target named is JAK3-JH1JH2 (Homo sapiens (Human), UniProt P52333). Description: Enzymatic inhibition assay (RapidFire HTMS), JAK3. To be noted: 150 μM ATP, 40 μM substrate.
Text: as §1, §2
as §3, with “compound.” for “compound. The final concentration of DMSO was ≤0.25% in a 20 μL reaction.”
as §4

The target of the next assay is Tyk2-JH1JH2 (Homo sapiens (Human), UniProt P29597, C1142A/C936A). Description: Enzymatic inhibition assay (RapidFire HTMS), Tyk2. The following applies: 50 μM ATP, 200 μM substrate.
Text: as §1, §2, §3, §4

JAK1-JH1JH2, sequence (P23458 574-1154): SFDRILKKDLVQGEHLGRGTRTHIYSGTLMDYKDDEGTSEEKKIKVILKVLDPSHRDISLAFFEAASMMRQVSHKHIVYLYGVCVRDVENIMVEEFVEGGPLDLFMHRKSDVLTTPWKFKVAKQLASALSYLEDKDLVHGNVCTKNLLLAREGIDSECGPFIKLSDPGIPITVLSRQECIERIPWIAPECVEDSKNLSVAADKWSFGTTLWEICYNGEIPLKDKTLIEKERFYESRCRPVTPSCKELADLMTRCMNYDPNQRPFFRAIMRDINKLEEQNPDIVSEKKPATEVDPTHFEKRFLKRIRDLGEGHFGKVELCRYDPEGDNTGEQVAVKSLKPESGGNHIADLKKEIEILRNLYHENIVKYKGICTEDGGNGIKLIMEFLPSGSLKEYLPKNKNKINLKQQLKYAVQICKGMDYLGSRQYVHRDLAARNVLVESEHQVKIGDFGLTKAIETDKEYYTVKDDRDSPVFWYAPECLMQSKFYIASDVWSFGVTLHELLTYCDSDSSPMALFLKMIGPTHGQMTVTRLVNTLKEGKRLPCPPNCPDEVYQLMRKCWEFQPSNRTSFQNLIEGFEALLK
JAK2-JH1JH2, sequence (O60674 532-1132): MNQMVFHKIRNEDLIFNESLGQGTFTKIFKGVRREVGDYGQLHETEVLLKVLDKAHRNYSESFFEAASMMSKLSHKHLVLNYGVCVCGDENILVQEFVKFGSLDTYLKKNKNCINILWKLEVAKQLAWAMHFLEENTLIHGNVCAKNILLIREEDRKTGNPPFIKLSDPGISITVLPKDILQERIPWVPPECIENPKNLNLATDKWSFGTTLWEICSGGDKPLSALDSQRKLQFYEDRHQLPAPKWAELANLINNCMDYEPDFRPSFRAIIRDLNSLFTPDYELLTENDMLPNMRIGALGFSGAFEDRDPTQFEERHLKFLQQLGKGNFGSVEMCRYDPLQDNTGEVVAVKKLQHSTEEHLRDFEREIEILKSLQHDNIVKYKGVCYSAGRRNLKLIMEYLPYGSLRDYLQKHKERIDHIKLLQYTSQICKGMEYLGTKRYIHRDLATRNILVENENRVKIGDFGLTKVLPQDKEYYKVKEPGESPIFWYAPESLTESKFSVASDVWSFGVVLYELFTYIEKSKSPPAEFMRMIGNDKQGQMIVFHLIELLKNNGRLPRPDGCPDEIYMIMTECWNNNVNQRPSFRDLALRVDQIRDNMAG
JAK3-JH1JH2, sequence (P52333 512-1124): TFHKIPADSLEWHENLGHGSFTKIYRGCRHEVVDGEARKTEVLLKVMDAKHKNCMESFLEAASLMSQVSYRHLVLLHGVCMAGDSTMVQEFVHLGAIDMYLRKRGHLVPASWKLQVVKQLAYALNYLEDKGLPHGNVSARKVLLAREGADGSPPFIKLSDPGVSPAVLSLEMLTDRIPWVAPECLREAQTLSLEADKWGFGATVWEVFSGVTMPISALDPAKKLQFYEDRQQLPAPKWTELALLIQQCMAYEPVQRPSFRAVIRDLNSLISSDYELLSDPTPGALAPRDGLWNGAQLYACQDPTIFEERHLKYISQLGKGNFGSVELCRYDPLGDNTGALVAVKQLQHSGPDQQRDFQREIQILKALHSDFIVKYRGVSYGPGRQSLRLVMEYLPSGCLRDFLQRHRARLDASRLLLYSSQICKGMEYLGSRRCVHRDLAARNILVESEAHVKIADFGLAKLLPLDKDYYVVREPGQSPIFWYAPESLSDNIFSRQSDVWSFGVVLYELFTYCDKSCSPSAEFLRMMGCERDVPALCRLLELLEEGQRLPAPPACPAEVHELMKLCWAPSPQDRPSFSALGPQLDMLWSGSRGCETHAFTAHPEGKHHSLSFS
Tyk2-JH1JH2, sequence (P29597 580-1182 C936A/C1142A): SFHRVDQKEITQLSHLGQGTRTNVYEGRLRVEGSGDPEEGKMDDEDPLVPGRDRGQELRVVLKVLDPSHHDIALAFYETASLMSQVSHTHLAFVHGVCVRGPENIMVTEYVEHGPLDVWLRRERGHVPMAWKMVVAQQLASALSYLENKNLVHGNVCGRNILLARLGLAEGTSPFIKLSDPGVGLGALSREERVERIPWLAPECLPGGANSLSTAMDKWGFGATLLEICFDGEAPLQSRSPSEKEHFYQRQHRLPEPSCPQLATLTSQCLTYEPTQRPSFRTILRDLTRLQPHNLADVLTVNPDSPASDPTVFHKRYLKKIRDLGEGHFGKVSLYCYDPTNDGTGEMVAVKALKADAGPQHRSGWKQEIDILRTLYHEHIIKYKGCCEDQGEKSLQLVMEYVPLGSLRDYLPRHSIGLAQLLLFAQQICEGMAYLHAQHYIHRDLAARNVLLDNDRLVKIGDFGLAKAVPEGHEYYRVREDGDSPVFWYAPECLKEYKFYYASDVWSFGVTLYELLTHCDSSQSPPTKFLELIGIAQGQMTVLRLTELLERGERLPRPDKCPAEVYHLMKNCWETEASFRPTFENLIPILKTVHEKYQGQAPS

As to `N#CC[C@H]1CC[C@H](n2c(CNS(=O)(=O)c3ccccc3)nc3cnc4[nH]ccc4c32)CC1` [Ex. 77, N-((1-((1r,4r)-4-(Cyanomethyl)cyclohexyl)-1,6-dihydroimidazo[4,5-d]pyrrolo[2,3-b]pyridin-2-yl)methyl)benzenesulfonamide], the IC50 (commonly the concentration needed to halve the response being measured) is 0.0004 µM at JAK1-JH1JH2, 0.0394 µM against JAK2-JH1JH2, 1.91 µM on JAK3-JH1JH2 and 0.0223 µM against Tyk2-JH1JH2.
For `N#CC[C@H]1CC[C@H](n2c(CC(=O)N3CC(O)C3)nc3cnc4[nH]ccc4c32)CC1` [Ex. 18, 2-((1r,4r)-4-(2-(2-(3-Hydroxyazetidin-1-yl)-2-oxoethyl)imidazo[4,5-d]pyrrolo[2,3-b]pyridin-1(6H)-yl)cyclohexyl)acetonitrile], the IC50 on JAK1-JH1JH2 is 0.0001 µM; at JAK2-JH1JH2, 0.0353 µM; on JAK3-JH1JH2 it was 0.54 µM; against Tyk2-JH1JH2 it was 0.0064 µM.
Turning to `N#CC[C@H]1CC[C@H](n2c(CO/N=C(\N)C34CC5CC(CC(C5)C3)C4)nc3cnc4[nH]ccc4c32)CC1` [Ex. 152, (3R,5R,7R,E*)-N′-((1-((1r,4r)-4-(Cyanomethyl)cyclohexyl)-1,6-dihydroimidazo[4,5-d]pyrrolo[2,3-b]pyridin-2-yl)methoxy)adamantane-1-carboximidamide], the IC50 on JAK1-JH1JH2 worked out at 0.0028 µM; against JAK2-JH1JH2, 0.0212 µM; against JAK3-JH1JH2 it was 0.803 µM; at Tyk2-JH1JH2, 0.0535 µM.
Turning to `N#CC[C@H]1CC[C@H](n2c(-c3nn[nH]n3)nc3cnc4[nH]ccc4c32)CC1` [Ex. 63, 2-((1r,4r)-4-(2-(2H-Tetrazol-5-yl)imidazo[4,5-d]pyrrolo[2,3-b]pyridin-1(6H)-yl)cyclohexyl)acetonitrile], the IC50 was 0.0003 µM on JAK1-JH1JH2, 0.0022 µM at JAK2-JH1JH2, 0.0573 µM at JAK3-JH1JH2 and 0.0191 µM against Tyk2-JH1JH2.
In the case of `N#CC[C@H]1CC[C@H](n2c(CC(=O)NCC3(O)COC3)nc3cnc4[nH]ccc4c32)CC1` [Ex. 24, 2-(1-((1r,4r)-4-(Cyanomethyl)cyclohexyl)-1,6-dihydroimidazo[4,5-d]pyrrolo[2,3-b]pyridin-2-yl)-N-((3-hydroxyoxetan-3-yl)methyl)acetamide], the IC50 at JAK1-JH1JH2 was found to be 0.0001 µM; against JAK2-JH1JH2, 0.0049 µM; on JAK3-JH1JH2 it was 0.0575 µM; against Tyk2-JH1JH2, 0.0033 µM.
Consider `N#CCC12CCC(n3c(CC(=O)NCC4CCCCC4)nc4cnc5[nH]ccc5c43)(CC1)CC2` [Ex. 208, 2-(1-(4-(Cyanomethyl)bicyclo[2.2.2]octan-1-yl)-1,6-dihydroimidazo[4,5-d]pyrrolo[2,3-b]pyridin-2-yl)-N-(cyclohexylmethyl)acetamide], for which the half-maximal inhibitory concentration (IC50) came out at 0.0076 µM on JAK1-JH1JH2, 0.442 µM against JAK2-JH1JH2, 0.536 µM on JAK3-JH1JH2 and 0.714 µM at Tyk2-JH1JH2.
In the case of `N#CC[C@H]1CC[C@H](n2c(CC(=O)N[C@H]3C[C@H](O)C3)nc3cnc4[nH]ccc4c32)CC1` [Ex. 37, 2-(1-((1r,4r)-4-(Cyanomethyl)cyclohexyl)-1,6-dihydroimidazo[4,5-d]pyrrolo[2,3-b]pyridin-2-yl)-N-((1R,3R)-3-hydroxycyclobutyl)acetamide], the IC50 on JAK1-JH1JH2 is 0.0002 µM; on JAK2-JH1JH2, 0.0046 µM; against JAK3-JH1JH2, 0.0388 µM; against Tyk2-JH1JH2 it was 0.0043 µM.
On the same counts, the results for `CC(C)(O)Cn1cc(-c2nc3cnc4[nH]ccc4c3n2[C@H]2CC[C@H](CC#N)CC2)cn1` [Ex. 187, 2-((1r,4r)-4-(2-(1-(2-Hydroxy-2-methylpropyl)-1H-pyrazol-4-yl)imidazo[4,5-d]pyrrolo[2,3-b]pyridin-1(6H)-yl)cyclohexyl)acetonitrile] are 0.0013 µM, 0.0246 µM, 0.18 µM and 0.06 µM.
Turning to `N#CC[C@H]1CC[C@H](n2c(-c3ccc(C(=O)c4ccccc4)cc3)nc3cnc4[nH]ccc4c32)CC1` [Ex. 92, 2-((1r,4r)-4-(2-(4-Benzoylphenyl)imidazo[4,5-d]pyrrolo[2,3-b]pyridin-1(6H)-yl)cyclohexyl)acetonitrile], the IC50 at JAK1-JH1JH2 was determined as 0.0004 µM; at JAK2-JH1JH2 it was 0.0117 µM; against JAK3-JH1JH2, 0.874 µM; against Tyk2-JH1JH2, 0.0336 µM.
As to `CC(=O)N1CC(c2nc3cnc4[nH]ccc4c3n2[C@H]2CC[C@H](CC#N)CC2)C1` [Ex. 147, 2-((1r,4r)-4-(2-(1-Acetylazetidin-3-yl)imidazo[4,5-d]pyrrolo[2,3-b]pyridin-1(6H)-yl)cyclohexyl)acetonitrile], the IC50 on JAK1-JH1JH2 stood at 0.0011 µM; on JAK2-JH1JH2, 0.315 µM; on JAK3-JH1JH2, 1.97 µM; against Tyk2-JH1JH2 it was 0.0879 µM.
As to `N#CC[C@H]1CC[C@H](n2c(CC(=O)NC3CCSCC3)nc3cnc4[nH]ccc4c32)CC1` [Ex. 83, 2-(1-((1r,4r)-4-(Cyanomethyl)cyclohexyl)-1,6-dihydroimidazo[4,5-d]pyrrolo[2,3-b]pyridin-2-yl)-N-(tetrahydro-2H-thiopyran-4-yl)acetamide], the IC50 at JAK1-JH1JH2 was determined as 0.0004 µM; on JAK2-JH1JH2 it was 0.0041 µM; at JAK3-JH1JH2, 0.03 µM; on Tyk2-JH1JH2 it was 0.0094 µM.
Regarding `N#CC[C@H]1CC[C@H](n2c(CC(=O)NCCO)nc3cnc4[nH]ccc4c32)CC1` [Ex. 29, 2-(1-((1r,4r)-4-(Cyanomethyl)cyclohexyl)-1,6-dihydroimidazo[4,5-d]pyrrolo[2,3-b]pyridin-2-yl)-N-(2-hydroxyethyl)acetamide], the IC50 amounted to 0.0001 µM on JAK1-JH1JH2, 0.0073 µM on JAK2-JH1JH2, 0.0672 µM on JAK3-JH1JH2 and 0.0038 µM on Tyk2-JH1JH2.
Turning to `N#CC[C@H]1CC[C@H](n2c(CNS(=O)(=O)c3ccc(C#N)cc3)nc3cnc4[nH]ccc4c32)CC1` [Ex. 97, 4-Cyano-N-((1-((1r,4r)-4-(cyanomethyl)cyclohexyl)-1,6-dihydroimidazo[4,5-d]pyrrolo[2,3-b]pyridin-2-yl)methyl)benzenesulfonamide], the IC50 was determined as 0.0005 µM on JAK1-JH1JH2, 0.0451 µM at JAK2-JH1JH2, 3.88 µM at JAK3-JH1JH2 and 0.0269 µM against Tyk2-JH1JH2.
Take `COCC/C(=N/O)NCc1nc2cnc3[nH]ccc3c2n1[C@H]1CC[C@H](CC#N)CC1` [Ex. 125]: the IC50 turned out to be 0.0007 µM on JAK1-JH1JH2, 0.0271 µM against JAK2-JH1JH2, 0.622 µM against JAK3-JH1JH2 and 0.0149 µM on Tyk2-JH1JH2.
In the case of `COCCOCCOCCOCCc1nc2cnc3[nH]ccc3c2n1[C@H]1CC[C@H](CC#N)CC1` [Ex. 192, 2-((1r,4r)-4-(2-(2,5,8,11-Tetraoxatridecan-13-yl)imidazo[4,5-d]pyrrolo[2,3-b]pyridin-1(6H)-yl)cyclohexyl)acetonitrile], the IC50 on JAK1-JH1JH2 was 0.001 µM; against JAK2-JH1JH2 it was 0.069 µM; at JAK3-JH1JH2, 1.12 µM; at Tyk2-JH1JH2, 0.0258 µM.
